{"source": "patent EP4616854A1", "about": "“TREATMENT OF MUSCLE SARCOPENIA” (Molius Saglik Teknolojileri Anonim Sirketi, priority 2024, dated 2025)", "key": {"[1]": {"assay": "Cell viability assay (MTT)", "conditions": "mouse, c2c12 cells", "method": "The effects of the drugs on the C2C12 cell viability were tested by MTT (Thiazolyl Blue Tetrazolium Bromide) assay. 1×10^4 cells were seeded per well in a 96-well plate in 100 µL growth media. After one day of cell seeding, the cells were treated with different concentrations of the drugs dissolved in 0.1 % DMSO and 100 µL of the media for one day. After the treatment period, 5 mg/ml MTT (M2128, Sigma-Aldrich) solution in PBS (10 µL) was added to each well. After one hour, the MTT solution and all media were removed from the wells. 100 µl of DMSO was added and mixed to dissolve the formazan crystals. Cell viability was analysed by measuring the absorbance of the dissolved formazan at a wavelength of 570 nm with a microplate reader (Hidex Sense Beta Plus)."}, "[2]": {"test_system": "C2-ceramide treated C2C12 cell line", "assay": "In vitro sarcopenia model (Example 2): Western blot of target genes and myogenic markers", "assay_type": "cell-based, mouse", "excerpt": "C2-ceramide ([…], Sigma Aldrich) was used for inducing sarcopenia in the C2C12 cell line. […] Then, the medium was changed twice, at two-day intervals, with a differentiation medium (DMEM with 2% FBS and 1% P/S) to differentiate myoblasts into myotubes. Because C2-ceramide may affect mitochondrial activity in muscle cells, another cell model was created without introducing ceramide. After completion of myotube differentiation, cells were harvested for western blot analysis. […] The cell lysates were centrifuged at 12.000 rpm for 10 min and supernatants were collected. Protein Assay Dye Reagent (5000006, Bio-Rad) was used for the determination of protein concentration. The absorbance of the proteins was measured spectrophotometrically at 595 nm by a microplate reader (Hidex Sense Beta Plus). […] The membrane was blocked with 5 % skim milk for 30 min at 4 °C with gentle rocking. After blocking, the membrane was treated with primary antibodies: anti-AGL (ab133720, Abcam, UK) anti-PDHX (HPA038484, Human Protein Atlas, Sweden), anti-Myogenin (ab124800, Abcam), anti-Myosin/MyH3 (ab124205, Abcam), anti-Beta actin (ab8227, Abam) as a loading control overnight at 4 °C on a rocking platform. After the treatment of primary antibodies, the membrane was washed three times with TBS-T buffer ([…]-7500-100, Medicago). Then, Goat anti-Rabbit IgG-HRP (ab205718, Abcam) was treated as the secondary antibody for 30 min at 4 °C with gentle rocking."}, "ubiquitinated proteins": {"test_system": "ubiquitinated proteins", "conditions": "mice, Sakai et al. [39]; cited from earlier work"}}, "note": "Entries after “also recorded” stand apart in the source; their conditions may differ. Where a SMILES comes first, the peptide text is derived from it. The star is where a group is joined. Cbz = O=C(OCc1ccccc1)*"}
{"smiles": "CC(C)C[C@@H](C=O)NC(=O)[C@H](CC(C)C)NC(=O)[C@H](CC(C)C)NC(=O)OCc1ccccc1", "note": "[MG-132] (Cbz-Leu-Leu-Leu-aldehyde)", "values": [{"measurement": "MNTC at 24 h", "setting": "[1]", "value": 25, "unit": "nM"}, {"measurement": "expression levels of MyH3", "setting": "[2]; sarcopenic cells", "value": "significantly increase"}, {"measurement": "expression levels of MyoG", "setting": "[2]; sarcopenic cells", "value": "significantly increase"}, {"measurement": "expression of myogenic markers", "setting": "[2]; sarcopenic cells, compared to the in vitro sarcopenia model", "value": "increased"}, {"measurement": "expression of AGL", "setting": "[2]; selected non-toxic optimal dose, in vitro sarcopenia model", "value": "enhanced; also recorded: significantly increase"}, {"measurement": "expression levels of ubiquitinated proteins in atrophic muscle cells", "setting": "ubiquitinated proteins", "value": "downregulation"}]}
